Several values for one entry are separate records, joined by “and”; a condition that tells them apart may be missing. Equal entries are not always repeated. Where two headings read alike, the source gives them in different places.
Legend:
Wild-type mice = assay: Chronic heart failure after myocardial infarction (LAD ligation) in wild-type mice; assay type: in vivo, mouse; conditions: plasma concentration 200 nM, vs placebo
Protocol: Wild-type mice are subjected to permanent ligation of the left anterior descending coronary artery resulting in myocardial infarction. Seven days following myocardial infartion, mice are treated with S36 (plasma concentration 200 nM) or placebo.

hERG potassium current = hERG potassium current (Homo sapiens, UniProt Q12809); assay: S107 specificity: hERG potassium current; conditions: 500 nM
C57BL/6J mice = assay: S107 chronic exercise model: treadmill run to exhaustion; assay type: in vivo, mouse
Protocol: Mice were allowed to recover for three days prior to the initiation of exercise. Standard food and water were provided ad libitum through the experiment.
Chronic Exercise Model: The daily swimming protocol consisted of twice-daily swimming sessions separated by a one-hour rest period. After an initial conditioning regimen lasting 5 days during which the swimming sessions were increased in 10 minute increments from 40 minutes each to 80 minutes each, the swimming sessions thereafter lasted 90 minutes each. A 30 cm wide by 30 cm long opaque acrylic tank was filled with tap water to a depth of at least 20 cm. Water was circulated and warmed to 32-34° C. using a separate reservoir with heating element, thermostat, and pump. 8 mice, balanced pair-wise with respect to genotype and/or treatment group, swam at any one time in the tank.
Treadmill performance: A Columbus Instruments (Columbus, Ohio) treadmill (Model: Exer-6M Treadmill with Treadmill Shock Detection Unit) with 6 lanes was used to run the mice. Mice were placed in their respective lanes with the shocking apparatus turned off and allowed to adjust to the surroundings for 10 minutes. The forward half of the treadmill was covered with aluminum foil to block out light and a desk lamp illuminated the shocking area at the rear of the treadmill. After the adjustment period, the treadmill was set to 10 meters/min, and the mice were trained to run with gentle prodding for 6 minutes. The electric current was then turned on, and the number of shocks delivered during the next two three minute intervals (training period) were recorded. The shock counter was then reset and visits to the shocking area and shocks delivered to each mouse were recorded at three-minute intervals until the end of the experiment. At regular intervals, the speed of the treadmill was ramped up from the initial 10 m/min to 24 m/min. The speed was increased no more than 2 m/min every 6 minutes. Task failure was defined when a mouse could not continue running despite gentle prodding.
Age and sex-matched WT mice were randomized to receive osmotic pumps containing either S107 or vehicle. […] Exercise capacity was assessed once a week by a level treadmill run to exhaustion during the nocturnal cycle of the mouse. The mice were not exercised on the same day as treadmill assessments. […] These studies are complicated by the training effect of repeated exercise which leads to improved performance due to enhanced musculature. Isometric force production was measured in EDL muscles in a tissue bath during field stimulation.

calpain = assay: Calpain activity assay in EDL homogenates of chronically exercised mice; assay type: in vivo, mouse
Protocol: Calpain and Creatine Kinase Assays: Tissue calpain activities were measured using a calpain activity assay kit (Calbiochem, San Diego, Calif.) (FIG. 42B). This assay is based on the degradation of the fluorescent peptide substrate Suc-LLVY-AMC (Calbiochem). Muscle homogenates were diluted to a final concentration of 600 μg/ml and the calpain activity in the homogenate was determined as per manufactures instructions. Plasma creatine kinase (CK) activity was assayed using the regent kit from Pointe Scientific, Inc. (Canton, Mich.) (FIG. 42A). Plasma samples (duplicates, 5 μl each) were added to 200 μl of CK reagent and the change in absorbance at 340 nm was recorded over 4 minutes using a plate reader. The average absorbance change per minute was used to determine the CPK levels as per manufacturer's instructions.
Reduced calpain activation in muscle tissue and reduced muscle tissue damage due to calstabin1 rebinding: One possible mechanism by which calcium released by leaky RyR1 channels impairs exercise performance is the activation of a member of the calpain family of Ca^2+-dependent neutral proteases, which are known to be responsible for muscle damage in a number of pathophysiological states. […] Calpain activity in muscle homogenates was assessed by means of the degradation of the synthetic calpain substrate Suc-LLVY-AMC, which fluoresces upon cleavage by calpain.

hERG current = hERG current (Homo sapiens, UniProt Q12809); assay: hERG current, PatchXpress 7000A automatic parallel patch clamp in hERG-transfected HEK 293 cells (Example 6); conditions: for Individual Data (% Inhibition): single cell
Protocol: HEK293 cells were transfected with a plasmid containing the hERG cDNA and a neomycin resistance gene. Stable transfectants were selected by culturing the cells in the presence of G418. The selection pressure was maintained by continued culture in the presence of G418. […] Cells for use in electrophysiology were cultured in 35 mm dishes.
Onset and steady state block of hERG current was measured using a pulse pattern with fixed amplitudes (conditioning prepulse: +20 mV for 2 seconds; test pulse: −50 mV for 2 seconds) repeated at 10 second intervals, from a holding potential of −80 mV. Peak tail current was measured during the 2 second step to −50 mV. A steady state was maintained for at least 30 seconds before applying the test compound or the positive control. Peak tail current was monitored until a new steady state was achieved. Test compound concentrations were applied cumulatively in ascending order without washout between applications.
Data acquisition and analysis was performed using the suite of pCLAMP (Vre. 8.2) programs (Axon Instruments, Union City, Calif.). Steady state was defined by the limiting constant rate of change with time (linear time dependence). The steady state before and after application of the test or control compounds was used to calculate the percentage of current inhibited at each concentration. […] Nonlinear squares fits were solved with the Solver add-in for Excel 2000 (Microsoft, Redmond, Wash.).
Multiple compounds of the invention were tested for their effects on hERG currents. The compounds tested were: ARM036-Na, ARM047, ARM048, ARM050, ARM057, ARM064, ARM074, ARM075, ARM076, ARM077, ARM101, ARM102, ARM103, ARM104, ARM106, ARM107 and ARM26. […] Electrophysiological recordings were made using the PatchXpress 7000 A (Molecular Devices) automatic parallel patch clamp system. […] The duration of exposure to each test concentration was 5 minutes.

Chain of hERG current (Q12809 whole entry): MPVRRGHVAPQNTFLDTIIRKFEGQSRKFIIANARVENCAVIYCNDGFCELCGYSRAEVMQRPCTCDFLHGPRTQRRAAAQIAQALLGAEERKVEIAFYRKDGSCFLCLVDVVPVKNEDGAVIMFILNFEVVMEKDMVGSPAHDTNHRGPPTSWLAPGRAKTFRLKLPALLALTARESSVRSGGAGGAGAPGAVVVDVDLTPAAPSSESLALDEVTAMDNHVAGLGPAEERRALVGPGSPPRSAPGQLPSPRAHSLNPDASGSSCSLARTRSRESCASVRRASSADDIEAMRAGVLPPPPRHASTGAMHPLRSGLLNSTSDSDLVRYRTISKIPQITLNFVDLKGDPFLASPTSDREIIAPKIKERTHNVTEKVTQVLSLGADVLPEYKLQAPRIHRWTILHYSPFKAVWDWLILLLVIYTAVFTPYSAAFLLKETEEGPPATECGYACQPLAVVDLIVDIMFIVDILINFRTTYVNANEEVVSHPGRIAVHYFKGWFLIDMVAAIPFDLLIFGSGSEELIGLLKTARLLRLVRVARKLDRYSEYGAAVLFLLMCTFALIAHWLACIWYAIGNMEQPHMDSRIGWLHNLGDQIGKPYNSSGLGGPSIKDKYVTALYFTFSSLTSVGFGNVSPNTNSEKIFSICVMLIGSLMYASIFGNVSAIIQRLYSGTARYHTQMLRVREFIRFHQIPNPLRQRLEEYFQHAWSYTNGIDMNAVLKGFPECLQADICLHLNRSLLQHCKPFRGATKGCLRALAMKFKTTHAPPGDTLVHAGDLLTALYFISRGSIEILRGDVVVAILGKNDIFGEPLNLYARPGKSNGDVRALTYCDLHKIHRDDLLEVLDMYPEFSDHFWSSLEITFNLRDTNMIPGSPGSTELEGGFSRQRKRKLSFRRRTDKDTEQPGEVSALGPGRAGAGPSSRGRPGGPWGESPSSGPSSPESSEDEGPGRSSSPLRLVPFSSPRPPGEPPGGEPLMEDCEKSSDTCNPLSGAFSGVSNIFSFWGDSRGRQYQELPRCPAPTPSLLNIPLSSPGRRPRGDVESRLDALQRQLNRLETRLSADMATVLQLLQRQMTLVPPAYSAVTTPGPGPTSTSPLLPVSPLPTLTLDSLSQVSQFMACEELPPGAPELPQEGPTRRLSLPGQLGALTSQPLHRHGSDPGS
Chain of hERG potassium current (Q12809 whole entry): as above

SMILES	Heart weight to body weight (HW/BW) ratio (Wild-type mice)	pressure-volume loop quantification (dP/dt) (Wild-type mice)	plasma levels preventing exercise-induced sudden cardiac death compared with JTV-519 (FKBP12.6+/− mice; mouse, in vivo)	cardiac arrhythmias and sudden cardiac death (FKBP12.6+/− mice; plasma level 0.02 μM)	cardiac arrhythmias and sudden cardiac death (FKBP12.6+/− mice; plasma level 1 μM)	effect on hERG potassium current (hERG potassium current)	acute effect on WT treadmill exercise performance (C57BL/6J mice; 2.5 ug/hr osmotic pump, WT mice)	treadmill exercise capacity (time to failure) vs vehicle (C57BL/6J mice; Day 21, WT mice, p<0.05)	treadmill performance (C57BL/6J mice; mice deficient in calstabin1)	body weight (C57BL/6J mice; throughout trial)	Calpain activity in EDL homogenates (calpain)	Mean % hERG Inhibition (hERG current; 0.01 μM)	Individual Data (% Inhibition) (hERG current; 0.01 μM, listed as ARM107, 0.01 µM)	Mean % hERG Inhibition (hERG current; 0.1 μM)	Individual Data (% Inhibition) (hERG current; 0.1 μM, listed as ARM107, 0.1 µM)	Mean % hERG Inhibition (hERG current; 1 μM)	Individual Data (% Inhibition) (hERG current; 1 μM, listed as ARM107, 1 µM)	Mean % hERG Inhibition (hERG current; 10 μM)	Individual Data (% Inhibition) (hERG current; 10 μM, listed as ARM107, 10 µM)	hERG current inhibition at the highest concentration tested (hERG current; highest concentration tested (10 μM))
COc1ccc2c(c1)CN(C(=O)C(=O)O)CCS2 [S36]	reverse remodeling	improved cardiac contractility	lower plasma levels compared with JTV-519	prevent	prevent	–	–	–	–	–	–	–	–	–	–	–	–	–	–	–
COc1ccc2c(c1)CN(C)CCS2 [S107]	–	–	–	–	–	not to affect	no acute effect	relatively protected against a decline in treadmill exercise capacity	failed to improve treadmill performance	did not result in a change	significantly reduced	2.9%	1.7% and 4.0%	4.0%	3.1% and 4.8%	6.2%	2.0% and 10.4%	32.1%	24.2% and 39.9%	less than 50%

From patent US8710045B2, “Agents for preventing and treating disorders involving modulation of the ryanodine receptors” (The Trustees of Columbia University in the City of New York, priority 2004, dated 2014)
